Like-named read-outs stand apart in the source and are kept apart here.

Here are results for one compound from patent publication US9782411B2, “{4-[5-(3-chloro-phenoxy)-oxazolo[5,4-d]pyrimidin-2-yl]-2,6-dimethyl-phenoxy}-acetic acid for use in the prevention or treatment of acute kidney injury” (Sanofi, priority 2013, dated 2017).

A short description of data set [1]: Selectivity panels (CEREP panel, kinases, ion channel panel).
For data set [2], the target named is T1, human ERG (ether-a-go-go related gene) potassium channel (Homo sapiens, UniProt Q12809).
T1 construct: host or cells: CHO (Chinese Hamster Ovary)
T1 sequence (Q12809 whole entry): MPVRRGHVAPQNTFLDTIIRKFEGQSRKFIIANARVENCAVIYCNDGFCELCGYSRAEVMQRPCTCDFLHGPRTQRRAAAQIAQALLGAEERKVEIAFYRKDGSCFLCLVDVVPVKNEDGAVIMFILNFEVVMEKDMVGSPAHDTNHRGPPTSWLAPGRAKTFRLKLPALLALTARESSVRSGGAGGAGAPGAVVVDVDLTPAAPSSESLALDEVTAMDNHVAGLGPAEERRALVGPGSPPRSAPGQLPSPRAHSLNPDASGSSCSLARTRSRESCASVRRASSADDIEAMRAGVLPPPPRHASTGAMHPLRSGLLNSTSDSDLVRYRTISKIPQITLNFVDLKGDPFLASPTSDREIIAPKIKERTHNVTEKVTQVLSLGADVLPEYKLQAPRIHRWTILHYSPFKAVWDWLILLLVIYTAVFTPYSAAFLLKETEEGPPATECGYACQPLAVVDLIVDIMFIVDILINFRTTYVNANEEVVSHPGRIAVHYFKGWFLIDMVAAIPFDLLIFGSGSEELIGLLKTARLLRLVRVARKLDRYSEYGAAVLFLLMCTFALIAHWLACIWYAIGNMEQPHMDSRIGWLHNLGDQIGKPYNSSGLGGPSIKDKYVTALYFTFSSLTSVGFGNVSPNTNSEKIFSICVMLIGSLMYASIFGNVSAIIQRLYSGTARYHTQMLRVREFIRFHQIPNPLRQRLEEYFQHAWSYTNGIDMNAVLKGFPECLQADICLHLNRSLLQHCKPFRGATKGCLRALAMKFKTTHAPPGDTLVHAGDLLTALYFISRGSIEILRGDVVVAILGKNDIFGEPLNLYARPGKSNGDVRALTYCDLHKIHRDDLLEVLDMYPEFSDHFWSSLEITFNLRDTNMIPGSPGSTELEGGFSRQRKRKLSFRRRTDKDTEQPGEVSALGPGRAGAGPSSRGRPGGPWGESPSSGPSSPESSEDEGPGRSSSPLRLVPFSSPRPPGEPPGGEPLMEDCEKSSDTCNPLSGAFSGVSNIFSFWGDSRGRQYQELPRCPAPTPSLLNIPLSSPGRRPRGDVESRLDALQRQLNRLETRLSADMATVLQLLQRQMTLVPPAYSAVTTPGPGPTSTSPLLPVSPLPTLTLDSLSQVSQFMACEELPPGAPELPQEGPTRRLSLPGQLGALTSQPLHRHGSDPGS
Kind of data set: hERG assay (patch clamp, CHO cells). The class given is cell-based. The protocol: Recombinant CHO (Chinese Hamster Ovary) cell line expressing the human ERG (ether-a-go-go related gene) potassium channel (Cytomyx Catalogue Number: CYL3002) has been cultured according to the following protocol. When necessary a culture has been restarted from frozen aliquots. The aliquots of frozen cells (1 mL) were rapidly warmed to 37° C. and first replated in a 75 cm^2 flask (Corning). The volume was then adjusted to 10 mL with the α-Minimum Essential Medium (Gibco 32571-028) containing 10% fetal calf serum. The medium has been renewed after 24 h and 1% geneticin (G418, Gibco 10131) has been added to prevent cellular derivation. […]
The hERG current was activated in response to voltage steps (2 s) from a holding potential of −80 mV to a test potential of +20 mV followed by a repolarization to −100 mV. Voltage steps were applied at 20 s intervals. hERG current was measured as the tail deactivating current at −100 mV. After a 3 minutes period for baseline measurements, compound A effects were measured 4-6 minutes after the change of solution.
The currents were analyzed using a database and analysis software DataXpress 1.0 (Axon Instruments/Molecular Devices).
Where “I” was the current measured after drug effect, “Irisperidone” was the current measured after the effect of the specific hERG-blocker and “Ibaseline” was the current measured before the superfusion of drug.

The nature of data set [3]: Pharmacokinetics in beagle dog. The following applies: in vivo, po, 3 mg/kg p.o.
The test system of a further data set is pERK and pAKt. Nature of the data set: Akt and ERK1/2 phosphorylations in RPTEC cells. It counts as cell-based. To be noted: Homo sapiens, read-out: EC50 induction of pERK and pAKt in RPTEC. How it is done:
RPTEC cells (Lonza) were seeded at 0.3×10^6 cells per well in 6 multiwell plates in 2 mL per well complete REBM/REGM medium (Lonza) for 24 hours. Cells were starved […] for an additional 24 hour period in 900 μL quiescent medium. Increasing concentrations of compound A (10×) were added under the volume of 100 μL in each well for 10 minutes at 37° C. When used, tunicamycin (100 μL) was added 30 min prior to compound A addition. After medium removal, cells were rinsed with cold PBS and lysed on ice in 100 μL cold RIPA buffer containing 1% triton, proteases and phosphatases inhibitors. For western blotting, 30 μg of total protein lysate were loaded in 4-12% bis-tris gels (Invitrogen). Following migration and transfer, nitrocellulose membranes were probed with anti phospho-Akt (Phospho-Ser473, Cst #9271) and anti phospho-Erk1/2 (phopsho-Tyr202/Tyr204, Cst #4377). Tubuline labelling with anti α-Tubuline (Cst #2144) was used for normalization after densitometric analysis of the films.

A further data set addresses S1P1 (Homo sapiens, UniProt P21453). Nature of the data set: Impedance assay (CEREP), CHO. On the set-up: host or cells: CHO (PathHunter). It counts as cell-based. To be noted: 10% FBS + 0.1% BSA. The source says:
The Impedance Assay from CEREP was used to determine the EC50 activity of compound A, BAF-312 and fingolimod on S1P1.

Data set [4] concerns conscious telemetered dogs. Nature of the data set: Dog telemetry study (cardiovascular function). It counts as in vivo. The source says: The purpose of this study was to assess the potential effect of compound A on the cardiovascular function (blood pressure, heart rate and ECG) in conscious telemetered dogs over a 24-hour period post dosing.
Conscious freely moving dogs (Marshall Farms, n=4, 2 males and 2 females, 6.9 to 10.8 kg body weight and 44 to 64-months) received an oral or intravenous dose of the negative control article (i.e., aqueous solution of 0.5% (w/w) hydroxyethylcellulose/0.6% (w/w) polysorbate 80 for oral route, or aqueous solution of 20% Captisol, pH 7.5 to 8) followed by compound A at 30 and 100 mg/kg for oral route as suspensions in negative control article, or 10 and 30 mg/kg for i.v. route as solution in negative control article, according to a rising dose study design with at least a 4-day washout period between each administration (5 mL/kg for oral route or for 30-min infusion into the jugular vein). Arterial blood pressure and lead II ECG signals (Transmitters from Data Science, USA) were continuously recorded on each treatment day from approximately 2 hours before dosing up to 24 hours after dosing. The following parameters were analyzed at several time points: arterial blood pressure (systolic, diastolic and mean), heart rate, electrocardiographic parameters of RR, PQ (=PR), QT interval durations and QRS complex duration as well as body temperature. […]

Data set [5] concerns peripheral blood lymphocytes. Kind of data set: Mouse lymphopenia studies. It counts as in vivo. To be noted: 3 and 10 mg/kg, mice. The protocol:
Male C57BI6/J mice (n=8, 25-30 g) (Charles River Laboratory, France) received a single oral administration of compound A at 1, 3, 10 and 30 mg/kg or vehicle article (methylcellulose 0.6%—tween 80 0.5% in water) within a volume of administration of 10 mL/kg. Blood was collected at 2, 6 and 24 h following compound administration for haematology analysis to determine whole blood lymphocyte count. Results are expressed as mean+/−s.e.m.

Chain of S1P1 (P21453 whole entry): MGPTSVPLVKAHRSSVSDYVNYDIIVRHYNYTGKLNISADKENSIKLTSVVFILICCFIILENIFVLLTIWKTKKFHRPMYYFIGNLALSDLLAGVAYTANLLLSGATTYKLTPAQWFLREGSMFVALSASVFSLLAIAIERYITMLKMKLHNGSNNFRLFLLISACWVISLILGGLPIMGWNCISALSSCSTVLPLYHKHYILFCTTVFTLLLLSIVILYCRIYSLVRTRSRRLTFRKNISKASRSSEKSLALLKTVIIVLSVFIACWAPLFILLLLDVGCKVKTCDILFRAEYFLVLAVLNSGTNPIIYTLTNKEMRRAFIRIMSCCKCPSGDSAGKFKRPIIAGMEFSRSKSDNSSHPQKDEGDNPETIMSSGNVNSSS

In the case of `Cc1cc(-c2nc3cnc(Oc4cccc(Cl)c4)nc3o2)cc(C)c1OCC(=O)O` [Compound A, {4-[5-(3-chloro-phenoxy)-oxazolo[5,4-d]pyrimidin-2-yl]-2,6-dimethyl-phenoxy}-acetic acid], in data set [1], the Selectivity profile result is listed as “attractive selectivity profile”. In data set [2], this compound had a concentration for half-maximal inhibition (IC50) above 30 µM. This compound yielded an AUC in data set [3] of 41300 ng·h/mL. Besides, in data set [3], the maximum concentration (Cmax) was 2910 ng/mL. Further, the concentration giving a half-maximal response (EC50) in the data set with pERK and pAKt (after tunicamycin injury) was around 10 µM; in the data set with pERK and pAKt (basal conditions), around 3 µM; at S1P1 it was 0.065 µM. Further, in data set [4] (30 or 100 mg/kg p.o. and 10 or 30 mg/kg i.v. (infusion over 30 min)), the “Effect on heart rate, atrioventricular block or any other ECG parameters” value was “No effect”. The “Change in blood pressure” value in data set [4] (at both doses) is “no significant change”. In data set [5], the Lymphopenic activity entry is “no lymphopenic activity”.
